Assay results from patent publication US20050209104A1, “Dinoflagellate karlotoxins, methods of isolation and uses thereof” (priority 2002, published 2005).
Converted amounts (≈) assume the structure as drawn.

Assays:
K. micrum (CCMP 2282) = assay: Exposure of Karlodinium micrum to KmTx 2; assay type: cell-based
Method: Oxyrrhis marina (1.7×10^4 cells/mil) and K. micrum (CCMP 2282) (3.5×10^4 cells/ml) were exposed, in triplicate, to 0, 0.1, 0.5, and 1 μg/ml KmTx 2 in six well non-tissue culture treated polystyrene plates (Becton Dickinson Labware, Lincoln Park N.J.). The O. marina culture was obtained through single cell isolation from a Chesapeake Bay water sample and was maintained in 15 psu artificial sea water (Instant Ocean Brand) using Rhodomonas sp. (CCMP 767) as a food source. O. marina was starved for 24 hours prior to exposures to reduce the number of food organisms. K. micrum (CCMP 2282) was maintained in 12 psu artificial sea water (Instant Ocean Brand) with f/2 nutrient mixture plus 1% soil extract as described in Deeds et al. (2002). Cell densities were measured at 1 and 24 hours using a Coulter Multisizer II particle counter by enumerating the 7-20 μm and the […] size fractions, respectively, for K. micrum and O. marina using a Coulter Accucomp software package (Coulter Electronics Limited, Miami Fla.). […]
Hemolytic activity remaining in solution was measured at 1 hour by mixing 100 μl of each treatment with an equal volume of diluted rainbow trout RBC suspension as described above in Example 3.

[1] = tested on: rainbow trout erythrocytes
Method: The filtrate from water samples collected on Feb. […] Environmental water samples were allowed to thaw to room temperature and passed through a Sep-Pak Plus tC18 disposable cartridge (Waters Corp., Milford Mass.), attached to a vacuum manifold. The column was pre-equilibrated with methanol (20 ml) followed by H2O (20 ml). The cartridges were eluted with the following concentrations of MeOH/H2O: 100% H2O, 40%, 60%, 80%, and 100% MeOH (12 ml ea^−1). An aliquot of each elution was diluted, using Tris buffer +CaCl2, to give final dilutions ranging from 6 to 60% of original concentrations. […] The occurrence of hemolytic activity was determined by the absorbance of released hemoglobin, measured at 540 nm. Saponin (10 μg) served as a positive hemolysin control. Treatments were run in quadruplicate.
A hemolytic assay based on the lysis of fish erythrocytes was utilized to screen for bioactive materials. Cultures and culture fractions that were positive in the hemolytic assay were tested further using assays for ichthyotoxicity and cytotoxicity.
Blood was extracted from the caudal vein of rainbow trout (Oncorhynchus mykis) provided by the Center of Marine Biotechnology's Aquaculture Research Center. Needles were heparin (Sigma Chemical Co., St. Louis Mo.) treated and 10 units ml^−1 of additional heparin was added to whole blood samples to prevent clotting. […] Buffer pH was adjusted to 7.4 at 10° C. with 1N HCl, then filter sterilized (0.22 μm). […] Suspensions were stored at 4° C. for no longer than 10 days.
Hemolytic assays were performed by diluting test material in Tris buffer +CaCl2 (100 μl total) and adding this to a 5% erythrocyte suspension (100 μl). […] Assays were incubated on an orbital shaker (80-100 rpm) at 20° C. for 1 hour. Plates were then centrifuged at 2500 g for 5 min. and the supernatant (100 μl) was transferred to another flat bottom 96 well polystyrene plate, where the absorbance of released hemoglobin was read at 540 nm. Saponin (10 μg) (from Quillaja bark; Sigma Chemical Co., St. Louis Mo.) was used as a positive hemolysin control All treatments were run in quadruplicate.
LC50values and ranges were determined by Probit analysis (SPSS Base 10.0, SPSS Inc., Chicago Ill.).
Blood was extracted from the caudal vein of rainbow trout (Oncorhynchus mykis). […] Buffer pH was adjusted to 7.4 at 10° C. with 1N HCl, then filter sterilized (0.22 um). […] Blood suspensions were stored at 4° C. for no longer than 10 days.
Hemolysis assays were performed by diluting test material in Tris buFFer +CaCl2 (100 ul) and adding this to 100 ul of a 5% erythrocyte suspension for a total assay volume of 200 ul. […] Plates were incubated on an orbital shaker (80-100 rpm) at 20° C. for 1 hour. Plates were then centrifuged at 2000 g for 5 min. and the supernatant (100 ul) was transferred to a new flat bottom 96 well polystyrene plate, where the absorbance of released hemoglobin was read at 540 nm. Saponin (from Quillaja bark; Sigma Chemical Co., St. Louis Mo.) was used as a positive hemolysin control. Percent hemolysis (0-100%) was calculated from comparison to un-treated controls and samples treated with 10 ug saponin. All treatments were run in quadruplicate.
Hemolytic LC50 values were calculated from a dilution series of KmTx 2 and amphotericin B. LC50 values and ranges were determined by Probit analysis using a SPSS Base 10.0 statistical software package (SPSS Inc., Chicago, Ill.).

[2] = tested on: rat ventricular cardiac myocytes; assay: Ion permeation measurement, Ca^2+ with fura-2 (cardiac myocyte); assay type: cell-based; settings: 60 seconds after application of 0.25 μg/ml
[3] = tested on: Candida albicans (ATCC 14053); assay: Anti-fungal broth microdilution assay (yeast); assay type: cell-based; settings: lowest dose with no growth after 96 hours, 28° C.
Method: The following fungal strains were purchased from the American Type Culture Collection (Manassas, Va.), Aspergillus niger (ATCC 1004) as a representative filamentous fungi, and Candida albicans (ATCC 14053) as a representative yeast. Assays were performed according to the following National Committee for Clinical Laboratory Standards documents; M27-A2 Reference Method for Broth Dilution Antifungal Susceptibility Testing of Yeasts; Approved Standard—Second Edition([NCCLS, 2002), and M38-A Reference Method for Broth Dilution Antifungal Susceptibility Testing of Filamentous Fungi; Approved Standard (NCCLS, 2002). Procedures for the broth microdilution modification were followed for both species with the following exceptions; A. niger stocks were maintained on Potato Dextrose Agar at 25° C., while C. albicans was maintained on Yeast Malt Agar at 28° C., both according to ATCC recommendations. Amphotericin B was used as a positive control. Microdilution assays were performed in HyQ-RPMI-1640 media (HyClone, Logan, Utah.), with 2.05 mM L-glutamine, without sodium bicarbonate, pH 7.2 using dilutions of 1 mg/ml DMSO stocks of KmTx 2 and amphotericin B.
The following concentrations were tested for both KmTx2 and amphotericin B: 0.0625, 0.125, 0.25, 0.5, 1, 2, 4, 8, and 16 μg/ml. A maximum of 1.6% DMSO was added to any given well. Plates were incubated at 25 and 28° C., respectively, for A. niger and C. albicans. […] Amphotericin B and all culture media were purchased from Sigma-Aldrich (St. Louis, Mo.).

Question: C=C(CC[C@H](O)[C@H]1O[C@H](C[C@@H](O)[C@H](O)[C@H](C)CCC[C@@H](O)[C@H](O)[C@H](O)[C@@H](C)CC[C@@H](O)[C@H](O)[C@H](C)C[C@@H](O)CCC[C@@H](O)CCC[C@@H](O)/C=C/C[C@@H](O)CO)[C@@H](O)[C@@H](O)[C@@H]1O)[C@H](O)[C@H](O)[C@@H]1C[C@H](O)[C@H](O)[C@@H]([C@H](O)[C@@H](O)/C=C/CCCCCCCC/C=C/C=C/Cl)O1 [KmTx 2] was tested. Which “K. micrum culture growth” value (K. micrum (CCMP 2282); 1 μg/ml, after 24 hours) did it give?
Answer: The value was “continued to divide”.

Question: What about the “effect on cultures of K. micrum” value (K. micrum (CCMP 2282); 0.1, 0.5, and 1 μg/ml) of the same compound?
Answer: Its value is “no effect”.

Question: What about the “hemolytic LC50” value ([1]; probit analysis of dilution series) of the same compound?
Answer: The value was 0.368 µg/mL.

Question: And the “hemolytic activity compared to amphotericin B” value ([1]; rainbow trout erythrocytes)?
Answer: Its value is “ten fold higher”.

Question: And the “[Ca^2+]i in cardiac myocyte” value [2]?
Answer: Its value is “dramatically elevated”.

Question: And the “Minimal inhibitory concentration (MIC)” value [3]?
Answer: Its value is 16 µg/mL (≈ 11.9 µM).
